The test system of this test is HBV. Put plainly: HBV replication inhibition assay (BDNA assay) in HepG2.2.15 cells. The class given is cell-based. The conditions noted are these: Hepatitis B virus, HepG2.2.15, HBV replication assay (BDNA assay), HepG2.2.15 cells; read-out: DNA EC50. The gist of the method:
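Supernatant encapsidated HBV DNA was measured by bDNA after DNase digestion and proteinase K release. Stably HBV-integrated HepG2.2.15 cells had two 3-day compound exposures (0.5% DMSO). Signals were background-subtracted and normalized to DMSO wells, and EC50 was obtained by four-parameter fit.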
As for `COCC1Cn2nc3c(c2C(=O)N(C)O1)CN(C(=O)Nc1ccc(F)c(Cl)c1)CC3` (stereo not drawn) [Compound 065, N-(3-chloro-4-fluoro-phenyl)-4-(methoxymethyl)-2-methyl-1-oxo-5,8,9,11-tetrahydro-4H-pyrido[2,3]pyrazolo[2,4-d][1,2,5]oxadiazepine-10-carboxamide], the EC50 is 0.001 to 0.1 µM.

With `CN1OCCn2nc3c(c2C1=O)CN(C(=O)Nc1ccc(F)c(Cl)c1)CC3` [Compound 066, N-(3-chloro-4-fluoro-phenyl)-2-methyl-1-oxo-5,8,9,11-tetrahydro-4H-pyrido[2,3]pyrazolo[2,4-c][1,2,5]oxadiazepine-10-carboxamide], the EC50 was in the range of 0.001 to 0.1 µM.

As to `C=CCN1OCCn2nc3c(c2C1=O)CN(C(=O)Nc1ccc(F)c(Cl)c1)CC3` [Compound 067, 2-allyl-N-(3-chloro-4-fluoro-phenyl)-1-oxo-5,8,9,11-tetrahydro-4H-pyrido[2,3]pyrazolo[2,4-c][1,2,5]oxadiazepine-10-carboxamide], the EC50 lay in the range of 0.001 to 0.1 µM.

As to `CCCN1OCCn2nc3c(c2C1=O)CN(C(=O)Nc1ccc(F)c(Cl)c1)CC3` [Compound 068, N-(3-chloro-4-fluoro-phenyl)-1-oxo-2-propyl-5,8,9,11-tetrahydro-4H-pyrido[2,3]pyrazolo[2,4-c][1,2,5]oxadiazepine-10-carboxamide], the EC50 lay within 0.001 to 0.1 µM.

On to `CC1Cc2nn3c(c2CN1C(=O)Nc1cccc(Cl)c1)C(=O)N(C)OC(CO)C3` (stereo not drawn) [Compound 070, N-(3-chlorophenyl)-4-(hydroxymethyl)-2,9-dimethyl-1-oxo-5,8,9,11-tetrahydro-4H-pyrido[2,3]pyrazolo[2,4-d][1,2,5]oxadiazepine-10-carboxamide], for which the EC50 was 0.001 to 0.1 µM.

In the case of `COC(=O)C1Cn2nc3c(c2C(=O)N(C)O1)CN(C(=O)Nc1ccc(F)c(Cl)c1)CC3` (stereo not drawn) [Compound 071, methyl 10-[(3-chloro-4-fluoro-phenyl)carbamoyl]-2-methyl-1-oxo-5,8,9,11-tetrahydro-4H-pyrido[2,3]pyrazolo[2,4-d][1,2,5]oxadiazepine-4-carboxylate], the EC50 is more than 1 µM.

On to `CN1OC(C(N)=O)Cn2nc3c(c2C1=O)CN(C(=O)Nc1ccc(F)c(Cl)c1)CC3` (stereo not drawn) [Compound 072, N10-(3-chloro-4-fluoro-phenyl)-2-methyl-1-oxo-5,8,9,11-tetrahydro-4H-pyrido[2,3]pyrazolo[2,4-d][1,2,5]oxadiazepine-4,10-dicarboxamide], for which the EC50 fell in the range of 0.001 to 0.1 µM.

As to `CNC(=O)C1Cn2nc3c(c2C(=O)N(C)O1)CN(C(=O)Nc1ccc(F)c(Cl)c1)CC3` (stereo not drawn) [Compound 073, N10-(3-chloro-4-fluoro-phenyl)-N4,2-dimethyl-1-oxo-5,8,9,11-tetrahydro-4H-pyrido[2,3]pyrazolo[2,4-d][1,2,5]oxadiazepine-4,10-dicarboxamide], the concentration giving a half-maximal response (EC50) is 0.001 to 0.1 µM.

As for `CN(C)C(=O)C1Cn2nc3c(c2C(=O)N(C)O1)CN(C(=O)Nc1ccc(F)c(Cl)c1)CC3` (stereo not drawn) [Compound 074, N10-(3-chloro-4-fluoro-phenyl)-N4,N4,2-trimethyl-1-oxo-5,8,9,11-tetrahydro-4H-pyrido[2,3]pyrazolo[2,4-d][1,2,5]oxadiazepine-4,10-dicarboxamide], the EC50 lay within 0.001 to 0.1 µM.

For the molecule `C[C@@H]1Cc2nn3c(c2CN1C(=O)Nc1ccc(F)c(Cl)c1)C(=O)N(C)OCC3` [Compound 075, (9R)—N-(3-chloro-4-fluoro-phenyl)-2,9-dimethyl-1-oxo-5,8,9,11-tetrahydro-4H-pyrido[2,3]pyrazolo[2,4-c][1,2,5]oxadiazepine-10-carboxamide], the concentration for a half-maximal effect (EC50) fell in the range of 0.001 to 0.1 µM.

On to `C[C@@H]1Cc2nn3c(c2CN1C(=O)Nc1ccc(F)c(C(F)(F)F)c1)C(=O)N(C)OCC3` [Compound 076, (R)—N-(4-fluoro-3-(trifluoromethyl)phenyl)-2,9-dimethyl-1-oxo-1,4,5,8,9,11-hexahydropyrido[4′,3′:3,4]pyrazolo[5,1-d][1,2,5]oxadiazepine-10(2H)-carboxamide], for which the EC50 fell in the range of 0.001 to 0.1 µM.

Take `C[C@@H]1Cc2nn3c(c2CN1C(=O)Nc1ccc(F)c(Br)c1)C(=O)N(C)OCC3` [Compound 077, (R)—N-(3-bromo-4-fluorophenyl)-2,9-dimethyl-1-oxo-1,4,5,8,9,11-hexahydropyrido[4′,3′:3,4]pyrazolo[5,1-d][1,2,5]oxadiazepine-10(2H)-carboxamide]: the EC50 was in the range of 0.001 to 0.1 µM.

On to `C[C@@H]1Cc2nn3c(c2CN1C(=O)Nc1ccnc(Br)c1F)C(=O)N(C)OCC3` [Compound 078, (R)—N-(2-bromo-3-fluoropyridin-4-yl)-2,9-dimethyl-1-oxo-1,4,5,8,9,11-hexahydropyrido[4′,3′:3,4]pyrazolo[5,1-d][1,2,5]oxadiazepine-10(2H)-carboxamide], for which the 50% effective concentration (EC50) was 0.001 to 0.1 µM.

As for `C[C@@H]1Cc2nn3c(c2CN1C(=O)Nc1ccc(F)c(C#N)c1)C(=O)N(C)OCC3` [Compound 079, (R)—N-(3-cyano-4-fluorophenyl)-2,9-dimethyl-1-oxo-1,4,5,8,9,11-hexahydropyrido[4′,3′:3,4]pyrazolo[5,1-d][1,2,5]oxadiazepine-10(2H)-carboxamide], the EC50 fell in the range of 0.001 to 0.1 µM.

As for `Cc1cc(NC(=O)N2Cc3c(nn4c3C(=O)N(C)OCC4)C[C@H]2C)ccc1F` [Compound 080, (R)—N-(4-fluoro-3-methylphenyl)-2,9-dimethyl-1-oxo-1,4,5,8,9,11-hexahydropyrido[4′,3′:3,4]pyrazolo[5,1-d][1,2,5]oxadiazepine-10(2H)-carboxamide], the EC50 was 0.001 to 0.1 µM.

With `C[C@@H]1Cc2nn3c(c2CN1C(=O)Nc1cc(F)c(F)c(Cl)c1)C(=O)N(C)OCC3` [Compound 081, (R)—N-(3-chloro-4,5-difluorophenyl)-2,9-dimethyl-1-oxo-1,4,5,8,9,11-hexahydropyrido[4′,3′:3,4]pyrazolo[5,1-d][1,2,5]oxadiazepine-10(2H)-carboxamide], the EC50 was 0.001 to 0.1 µM.

Regarding `CCOCC1Cn2nc3c(c2C(=O)N(C)O1)CN(C(=O)Nc1ccc(F)c(Cl)c1)CC3` (stereo not drawn) [Compound 101, N-(3-chloro-4-fluoro-phenyl)-4-(ethoxymethyl)-2-methyl-1-oxo-5,8,9,11-tetrahydro-4H-pyrido[2,3]pyrazolo[2,4-d][1,2,5]oxadiazepine-10-carboxamide], the EC50 lay in the range of 0.001 to 0.1 µM.

As to `C=CCOCC1Cn2nc3c(c2C(=O)N(C)O1)CN(C(=O)Nc1ccc(F)c(Cl)c1)CC3` (stereo not drawn) [Compound 102, 4-(allyloxymethyl)-N-(3-chloro-4-fluoro-phenyl)-2-methyl-1-oxo-5,8,9,11-tetrahydro-4H-pyrido[2,3]pyrazolo[2,4-d][1,2,5]oxadiazepine-10-carboxamide], the half-maximal effective concentration (EC50) lay in the range of 0.001 to 0.1 µM.

As for `CCCOCC1Cn2nc3c(c2C(=O)N(C)O1)CN(C(=O)Nc1ccc(F)c(Cl)c1)CC3` (stereo not drawn) [Compound 103, N-(3-chloro-4-fluoro-phenyl)-2-methyl-1-oxo-4-(propoxymethyl)-5,8,9,11-tetrahydro-4H-pyrido[2,3]pyrazolo[2,4-d][1,2,5]oxadiazepine-10-carboxamide], the EC50 lay within 0.001 to 0.1 µM.

In the case of `CN1OC(COCC2CC2)Cn2nc3c(c2C1=O)CN(C(=O)Nc1ccc(F)c(Cl)c1)CC3` (stereo not drawn) [Compound 104, N-(3-chloro-4-fluoro-phenyl)-4-(cyclopropylmethoxymethyl)-2-methyl-1-oxo-5,8,9,11-tetrahydro-4H-pyrido[2,3]pyrazolo[2,4-d][1,2,5]oxadiazepine-10-carboxamide], the EC50 lay within 0.001 to 0.1 µM.

In the case of `CN1OC(COCC(F)F)Cn2nc3c(c2C1=O)CN(C(=O)Nc1ccc(F)c(Cl)c1)CC3` (stereo not drawn) [Compound 105, N-(3-chloro-4-fluoro-phenyl)-4-(2,2-difluoroethoxymethyl)-2-methyl-1-oxo-5,8,9,11-tetrahydro-4H-pyrido[2,3]pyrazolo[2,4-d][1,2,5]oxadiazepine-10-carboxamide], the half-maximal effective concentration (EC50) lay within 0.001 to 0.1 µM.

Turning to `CN1OC(COCC(F)(F)F)Cn2nc3c(c2C1=O)CN(C(=O)Nc1ccc(F)c(Cl)c1)CC3` (stereo not drawn) [Compound 106, N-(3-chloro-4-fluoro-phenyl)-2-methyl-1-oxo-4-(2,2,2-trifluoroethoxymethyl)-5,8,9,11-tetrahydro-4H-pyrido[2,3]pyrazolo[2,4-d][1,2,5]oxadiazepine-10-carboxamide], the EC50 was in the range of 0.001 to 0.1 µM.

With `[2H]C([2H])([2H])N1OC(CO)Cn2nc3c(c2C1=O)CN(C(=O)Nc1ccc(F)c(Cl)c1)CC3` (stereo not drawn) [Compound 107, N-(3-chloro-4-fluoro-phenyl)-4-(hydroxymethyl)-1-oxo-2-(trideuteriomethyl)-5,8,9,11-tetrahydro-4H-pyrido[2,3]pyrazolo[2,4-d][1,2,5]oxadiazepine-10-carboxamide], the EC50 fell in the range of 0.001 to 0.1 µM.

`CN1OC(CN)Cn2nc3c(c2C1=O)CN(C(=O)Nc1ccc(F)c(Cl)c1)CC3` (stereo not drawn) [Compound 113, 4-(aminomethyl)-N-(3-chloro-4-fluoro-phenyl)-2-methyl-1-oxo-5,8,9,11-tetrahydro-4H-pyrido[2,3]pyrazolo[2,4-d][1,2,5]oxadiazepine-10-carboxamide]: the EC50 lay within 0.001 to 0.1 µM.

In the case of `CNC(=O)C1Cn2nc3c(c2C(=O)N(C)O1)CN(C(=O)Nc1ccc(F)c(Cl)c1F)CC3` (stereo not drawn) [Compound 118, N10-(3-chloro-2,4-difluorophenyl)-N4,2-dimethyl-1-oxo-1,4,5,8,9,11-hexahydropyrido[4′,3′:3,4]pyrazolo[5,1-d][1,2,5]oxadiazepine-4,10(2H)-dicarboxamide], the EC50 fell in the range of 0.001 to 0.1 µM.

Regarding `CNC(=O)C1Cn2nc3c(c2C(=O)N(C)O1)CN(C(=O)Nc1cc(Cl)c(F)cc1F)CC3` (stereo not drawn) [Compound 119, N10-(5-chloro-2,4-difluorophenyl)-N4,2-dimethyl-1-oxo-1,4,5,8,9,11-hexahydropyrido[4′,3′:3,4]pyrazolo[5,1-d][1,2,5]oxadiazepine-4,10(2H)-dicarboxamide], the EC50 lay in the range of 0.1 to 0.5 µM.

Regarding `CNC(=O)C1Cn2nc3c(c2C(=O)N(C)O1)CN(C(=O)Nc1ccc(F)c(C#N)c1)CC3` (stereo not drawn) [Compound 120, N10-(3-cyano-4-fluorophenyl)-N4,2-dimethyl-1-oxo-1,4,5,8,9,11-hexahydropyrido[4′,3′:3,4]pyrazolo[5,1-d][1,2,5]oxadiazepine-4,10(2H)-dicarboxamide], the EC50 lay in the range of 0.1 to 0.5 µM.

The values are drawn from patent publication US10987359B2, “Oxadiazepinone derivatives and methods of treating hepatitis B infections” (priority 2016, dated 2021).
